# Data taken from patent US10479795B2 (Incyte Corporation, priority 2016, dated 2019).
# Structures can show the parent of a compound that is named as a salt.
# Target: PI3Kγ (p110γ) Recombinant Human Protein (Homo sapiens (Human), UniProt P48736)
# Assay: PI3K-γ Scintillation Proximity Assay
# Type: biochemical
# Conditions: read-out: PI3Kγ IC50
# Description: [γ-^33P]ATP (10 mCi/mL) and Wheat Germ Agglutinin (WGA) YSi SPA Scintillation Beads was purchased from Perkin-Elmer (Waltham, Mass.). […] PI3Kγ (p110γ) Recombinant Human Protein was purchased from Life technology (Grand Island, N.Y.). ATP, MgCl2, DTT, EDTA, MOPS and CHAPS were purchased from Sigma-Aldrich (St. Louis, Mo.).
# The kinase reaction was conducted in polystyrene 384-well Greiner Bio-one white plate from Thermo Fisher Scientific in a final volume of 25 μL. Inhibitors were first diluted serially in DMSO and added to the plate wells before the addition of other reaction components. The final concentration of DMSO in the assay was 2%. The PI3Kγ assay was carried out at room temperature in 20 mM MOPS, pH 6.7, 10 mM MgCl2, 5 mM DTT and CHAPS 0.03%. Reactions were initiated by the addition of ATP, the final reaction mixture consisted of 20 μM PIP2, 2 μM ATP, 0.5 μCi [γ-^33P] […] The final concentration of SPA beads is 1.0 mg/mL. After the plate sealing, plates were shaken overnight at room temperature and centrifuged at 1500 rpm for 10 min, the radioactivity of the product was determined by scintillation counting on Topcount (Perkin-Elmer). IC50 determination was performed by fitting the curve of percent of the solvent control activity versus the log of the inhibitor concentration using the GraphPad Prism 6.0 software.
# PI3Kγ (p110γ) Recombinant Human Protein, sequence (P48736 whole entry): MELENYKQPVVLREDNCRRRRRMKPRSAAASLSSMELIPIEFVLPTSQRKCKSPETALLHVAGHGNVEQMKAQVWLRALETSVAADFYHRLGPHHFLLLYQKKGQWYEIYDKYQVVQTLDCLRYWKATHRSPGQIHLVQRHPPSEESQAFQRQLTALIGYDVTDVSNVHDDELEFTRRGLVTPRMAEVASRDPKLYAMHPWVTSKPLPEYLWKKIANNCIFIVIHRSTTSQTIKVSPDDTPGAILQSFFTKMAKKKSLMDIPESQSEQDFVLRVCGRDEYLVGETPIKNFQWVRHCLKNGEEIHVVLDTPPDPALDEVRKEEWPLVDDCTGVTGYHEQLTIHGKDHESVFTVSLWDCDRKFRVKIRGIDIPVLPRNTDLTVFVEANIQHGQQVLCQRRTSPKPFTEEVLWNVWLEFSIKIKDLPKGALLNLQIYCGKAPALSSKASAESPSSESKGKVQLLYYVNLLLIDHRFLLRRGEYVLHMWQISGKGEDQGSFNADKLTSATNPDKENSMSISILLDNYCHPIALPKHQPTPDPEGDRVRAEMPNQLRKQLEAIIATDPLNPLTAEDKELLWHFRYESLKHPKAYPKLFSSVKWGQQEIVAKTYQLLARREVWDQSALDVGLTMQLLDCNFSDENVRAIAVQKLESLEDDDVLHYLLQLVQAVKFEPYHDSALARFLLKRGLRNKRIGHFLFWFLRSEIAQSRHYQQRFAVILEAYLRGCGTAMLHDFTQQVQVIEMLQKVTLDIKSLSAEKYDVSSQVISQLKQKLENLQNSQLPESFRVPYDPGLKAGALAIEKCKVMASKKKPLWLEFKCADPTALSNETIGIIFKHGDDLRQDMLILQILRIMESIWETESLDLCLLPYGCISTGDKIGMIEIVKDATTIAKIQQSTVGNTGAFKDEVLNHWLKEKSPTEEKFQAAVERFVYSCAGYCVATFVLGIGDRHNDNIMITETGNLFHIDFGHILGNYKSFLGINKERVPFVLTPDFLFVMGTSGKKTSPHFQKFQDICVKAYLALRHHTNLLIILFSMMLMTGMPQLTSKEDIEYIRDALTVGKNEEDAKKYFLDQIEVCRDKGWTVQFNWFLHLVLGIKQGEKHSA
row,IC50 [nM],SMILES
1,< 100,"Cc1ccc(S(=O)(=O)NCc2ccnn2C)cc1-c1cnc2c(N)ncnn12 [Example 236, 3-(4-aminoimidazo[2,1-f][1,2,4]triazin-7-yl)-4-methyl-N-((1-methyl-1H-pyrazol-5-yl)methyl)benzenesulfonamide]"
2,< 100,"CC(=O)Nc1ccc(NS(=O)(=O)c2ccc(C)c(-c3cnc4c(N)ncnn34)c2)cn1 [Example 244, N-(5-((3-(4-aminoimidazo[2,1-f][1,2,4]triazin-7-yl)-4-methylphenyl)sulfonamido)pyridin-2-yl)acetamide]"
3,< 100,"Cc1ccc(S(=O)(=O)Nc2c(C)nn(C)c2C)cc1-c1cnc2c(N)ncnn12 [Example 214, 3-(4-Aminoimidazo[2,1-f][1,2,4]triazin-7-yl)-4-methyl-N-(1,3,5-trimethyl-1H-pyrazol-4-yl)benzenesulfonamide]"
4,< 100,"Cc1ccc(S(=O)(=O)N2CCC(C#N)CC2)cc1-c1cnc2c(N)ncnn12 [Example 217, 1-((3-(4-aminoimidazo[2,1-f][1,2,4]triazin-7-yl)-4-methylphenyl)sulfonyl)piperidine-4-carbonitrile]"
5,< 100,"Cc1ccc(S(=O)(=O)NC2(C)CCCN(C)C2)cc1-c1cnc2c(N)nc(C(F)(F)F)nn12 (centres unmarked) [Example 526, 3-(4-Amino-2-(trifluoromethyl)imidazo[2,1-f][1,2,4]triazin-7-yl)-N-(1,3-dimethylpiperidin-3-yl)-4-methylbenzenesulfonamide trifluoroacetate]"
6,< 100,"Cc1ccc(S(=O)(=O)NC2(C)CCN(C)CC2)cc1-c1cnc2c(N)nc(C(F)(F)F)nn12 [Example 528, 3-(4-Amino-2-(trifluoromethyl)imidazo[2,1-f][1,2,4]triazin-7-yl)-N-(1,4-dimethylpiperidin-4-yl)-4-methylbenzenesulfonamide trifluoroacetate]"
7,< 100,"Cc1ccc(S(=O)(=O)N2CCc3nc[nH]c3C2)cc1-c1cnc2c(N)ncnn12 [Example 224, 7-(2-methyl-5-((3,4,6,7-tetrahydro-5H-imidazo[4,5-c]pyridin-5-yl)sulfonyl)phenyl)imidazo[2,1-f][1,2,4]triazin-4-amine]"
8,< 100,"Cc1ccc(S(=O)(=O)NC2(C)CN(C)C2)cc1-c1cnc2c(N)nc(C(F)(F)F)nn12 [Example 532, 3-(4-Amino-2-(trifluoromethyl)imidazo[2,1-f][1,2,4]triazin-7-yl)-N-(1,3-dimethylazetidin-3-yl)-4-methylbenzenesulfonamide]"
9,< 100,"Cc1ccc(S(=O)(=O)N2CCn3cnc(C(=O)NCC(F)(F)F)c3C2)cc1-c1cnc2c(N)ncnn12 [Example 241, 7-((3-(4-aminoimidazo[2,1-f][1,2,4]triazin-7-yl)-4-methylphenyl)sulfonyl)-N-(2,2,2-trifluoroethyl)-5,6,7,8-tetrahydroimidazo[1,5-a]pyrazine-1-carboxamide]"
10,100 to 500,"Cc1ccc(S(=O)(=O)NC2(C)CCN(C3CCOC3)CC2)cc1-c1cnc2c(N)nc(C(F)(F)F)nn12 (centres unmarked) [Example 530, 3-(4-Amino-2-(trifluoromethyl)imidazo[2,1-f][1,2,4]triazin-7-yl)-4-methyl-N-(4-methyl-1-(tetrahydrofuran-3-yl)piperidin-4-yl)benzenesulfonamide trifluoroacetate]"
11,100 to 500,"Cc1ccc(S(=O)(=O)NC2(C)CCN(C3CC(C#N)C3)CC2)cc1-c1cnc2c(N)nc(C(F)(F)F)nn12 (centres unmarked) [Example 529, 3-(4-Amino-2-(trifluoromethyl)imidazo[2,1-f][1,2,4]triazin-7-yl)-N-(1-(3-cyanocyclobutyl)-4-methylpiperidin-4-yl)-4-methylbenzenesulfonamide trifluoroacetate]"
12,< 100,"Cc1ccc(S(=O)(=O)N2CCN(C)C(=O)C2)cc1-c1cnc2c(N)ncnn12 [Example 228, 4-((3-(4-aminoimidazo[2,1-f][1,2,4]triazin-7-yl)-4-methylphenyl)sulfonyl)-1-methylpiperazin-2-one]"
13,< 100,"Cc1nc(CNS(=O)(=O)c2ccc(C)c(-c3cnc4c(N)ncnn34)c2)no1 [Example 237, 3-(4-aminoimidazo[2,1-f][1,2,4]triazin-7-yl)-4-methyl-N-((5-methyl-1,2,4-oxadiazol-3-yl)methyl)benzenesulfonamide]"
14,< 100,"Cc1ccc(S(=O)(=O)NC2(C)CCCN(C(C)C)C2)cc1-c1cnc2c(N)nc(C(F)(F)F)nn12 (centres unmarked) [Example 527, 3-(4-Amino-2-(trifluoromethyl)imidazo[2,1-f][1,2,4]triazin-7-yl)-N-(1-isopropyl-3-methylpiperidin-3-yl)-4-methylbenzenesulfonamide trifluoroacetate]"
15,< 100,"Cc1ccc(S(=O)(=O)Nc2ccnc(C#N)c2)cc1-c1cnc2c(N)ncnn12 [Example 248, 3-(4-aminoimidazo[2,1-f][1,2,4]triazin-7-yl)-N-(2-cyanopyridin-4-yl)-4-methylbenzenesulfonamide]"
16,< 100,"Cc1ccc(S(=O)(=O)N2CCn3ncc(C#N)c3C2)cc1-c1cnc2c(N)ncnn12 [Example 240, 5-((3-(4-aminoimidazo[2,1-f][1,2,4]triazin-7-yl)-4-methylphenyl)sulfonyl)-4,5,6,7-tetrahydropyrazolo[1,4-a]pyrazine-3-carbonitrile]"
17,< 100,"CC(=O)N1CCN(S(=O)(=O)c2ccc(C)c(-c3cnc4c(N)ncnn34)c2)CC1 [Example 229, 1-(4-((3-(4-aminoimidazo[2,1-f][1,2,4]triazin-7-yl)-4-methylphenyl)sulfonyl)piperazin-1-l)ethan-1-one]"
18,< 100,"Cc1ccc(S(=O)(=O)N2CCN(c3ccc(C#N)cn3)CC2)cc1-c1cnc2c(N)ncnn12 [Example 232, 6-(4-((3-(4-aminoimidazo[2,1-f][1,2,4]triazin-7-yl)-4-methylphenyl)sulfonyl)piperazin-1-yl)nicotinonitrile]"
19,< 100,"Cc1ccc(S(=O)(=O)N2CCC(c3ccccn3)CC2)cc1-c1cnc2c(N)ncnn12 [Example 216, 7-(2-methyl-5-((4-(pyridin-2-yl)piperidin-1-yl)sulfonyl)phenyl)imidazo[2,1-f][1,2,4]triazin-4-amine]"
20,< 100,"Cc1ccc(S(=O)(=O)NC23C4C5C2C2C3C4C52C(C)(C)O)cc1-c1cnc2c(N)ncnn12 (centres unmarked) [Example 535, 3-(4-Aminoimidazo[2,1-f][1,2,4]triazin-7-yl)-N-(4-(2-hydroxypropan-2-yl)cuban-1-yl)-4-methylbenzenesulfonamide trifluoroacetate]"
21,< 100,"Cc1ccc(S(=O)(=O)N(C)c2ccncc2)cc1-c1cnc2c(N)ncnn12 [Example 247, 3-(4-aminoimidazo[2,1-f][1,2,4]triazin-7-yl)-N,4-dimethyl-N-(pyridin-4-yl)benzenesulfonamide]"
22,< 100,"Cc1ccc(S(=O)(=O)N2CCn3ccnc3C2)cc1-c1cnc2c(N)ncnn12 [Example 223, 7-(5-((5,6-dihydroimidazo[1,2-a]pyrazin-7(8H)-yl)sulfonyl)-2-methylphenyl)imidazo[2,1-f][1,2,4]triazin-4-amine]"

row,SMILES,IC50 [nM]
1,"Cc1ccc(S(=O)(=O)NC23CC(CN(C(C)C)C2)C3)cc1-c1cnc2c(N)nc(C(F)(F)F)nn12 [Example 524, 3-(4-Amino-2-(trifluoromethyl)imidazo[2,1-f][1,2,4]triazin-7-yl)-N-(3-isopropyl-3-azabicyclo[3.1.1]heptan-1-yl)-4-methylbenzenesulfonamide trifluoroacetate]",< 100
